Measurements from patent US6262036A, “Method for inhibiting RNA translation using chimeric oligonucleoside compounds” (priority 2000, dated 2001).
[mp] = methylphosphonate linkage

Experiments:
[1] = system: complementary synthetic RNA target; assay: Binding affinities of chimeric backbone oligomers to RNA (Example 35); parameters: KA (37° C.): unit not given here; details: for Tm: 1:1 molar ratio, 2.4 micromolar total strand, pH 7.2, 100 mM NaCl; for KA (37° C.): two-state model fit
Method: The following oligonucleotides were tested for their ability to hybridize to a complementary synthetic RNA target.
The bases shown in parentheses contain the backbone modification indicated in the middle set of brackets for each description, and likewise the terminal portions of the oligomers contain linkage structures as shown in the terminal sets of brackets. The PS/DE notation indicates an alternating array of bases beginning with a phosphorothioate linkage. For example, if there are five bases in a sequence denoted as PS/DE, they include three phosphorothioate (PS) bonds and two phosphodiester (DE) bonds.
Each oligomer was mixed with its complementary synthetic RNA target in a 1:1 molar ratio in a buffer system consisting of 20 mM sodium phosphate buffer (pH 7.2), 100 mM NaCl, 0.03% potassium sarkosylate and 0.1 mM EDTA; total strand concentration=2.4 micromolar. The resulting solutions were heated to 70° C. and slowly cooled to 4° C. over a time period of approximately 4-6 hours. […] The binding constants at 37° C.

S1-endonuclease = assay: Stability to nuclease digestion by S1-endonuclease (Example 37); format: in vitro ADME; details: S1-endonuclease 0.5 units/mL, pH 5.0, 37° C.; 50% full length oligomer digested
Method: The following oligomers were tested for nuclease stability in the presence of S1-endonuclease.
S1-endonuclease was purchased from Promega Corp. (Catalog #E576B, Madison, Wis.). Aliquots of each chimeric oligomer (0.05-0.075 OD260 units) were individually added to polypropylene microcentrifuge tubes containing S1-endonuclease (0.5 units/mL) in 30 mM sodium acetate (pH 5.0), 50 mM NaCl, 1.0 mM zinc acetate and 5% glycerol; total reaction volume=10 μL. These tubes were incubated at 37° C. for specified time periods, quickly frozen in dry ice and then stored in a freezer at -20° C. […] Column=Vydac Protein C4 (catalog #214TP54, 4.9 mm i.d.×250 mm long). Buffer A=50 mM triethylammonium acetate (pH 7)/1% acetonitrile; Buffer B=50 mM triethylammonium acetate (pH 7)/50% acetonitrile. […] The samples were diluted with water (50 μL) and injected onto the column using a 100 μL sample loop. Peaks corresponding to full length oligomer and its degradation products were detected by monitoring at 260 nm. The amount of degradation occurring in each reaction was determined by measuring the reduction in peak area for the full-length oligomer (identified by comparison to an external control and/or by coinjecting undigested oligomer as an internal control). The data is shown in tabular format below, and in graphic format in FIG. 1.

[2] = system: endogenous eukaryotic RNaseH derived from HeLa cell nuclear extracts; format: biochemical; details: 10 μM oligomer, 1 μM RNA target
[3] = Stability to nuclease digestion in 10% fetal calf serum (Example 38); format: in vitro ADME; details: pH 8.0, 37° C., 50% full length oligomer digested, first three time points
Method: Multiple samples of each chimeric oligomer were prepared in 1.5 mL polypropylene microcentrifuge tubes on ice. Each sample contained oligomer (0.1 OD260 unit), 10% fetal calf serum (FCS, Gemini Bioproducts, Calabasas, Calif.), 20 mM HEPES (pH 8.0), 0.2% paramethylsulfonyl fluoride (PMSF), 175 mM KCl, 0.1 mM dithiothreitol, 0.1 mM EDTA, 2 mM MgCl2 and 4% glycerol--total volume=100 μL. The samples were incubated at 37° C. for specified time periods and then diluted with 0.4% NP-40/acetonitrile (35 μL), quickly frozen on dry ice and stored at -20° C. Samples were then individually thawed, diluted with water (635 μL) and analyzed immediately by reversed-phase HPLC according to the method given in the preceding example (except that a 2 mL sample loop was used to load the samples onto the column). Results are shown in tabular format below, and in graphical format in FIG. 2.

[4] = system: complementary RNA targets; assay: Tm of Rp-enriched versus racemic methylphosphonate oligomers with RNA (Example 33); format: binding; details: for Tm: 2.4 μM total strand concentration, pH 7.2, 100 mM sodium chloride
pG1035 (SplicerCAT) = assay: Inhibition of CAT expression, splicing target pG1035 (SplicerCAT), in COS-7 cells; format: cell-based, African Green Monkey; details: 1.0 μM oligomer; ± std error; normalized to protein and luciferase; chimeric oligomers also normalized to pG1036
Method: COS-7 cells were transiently transfected with plasmids encoding either a target reporter gene or a control non-target reporter gene. These cells were then treated with various chimeric antisense or control oligomers and then assayed for the expression of the reporter genes.
pG1035: Splicer CAT, inserted into a pRc/CMV vector
COS 7 cells were plated at 1.5×10^5 cells/well in a 12 well plate format on the day before transfections began. All cultures were maintained at 37° C. On the next day, the transfection mixes were prepared. For each well of a 12 well plate, 1.0 μM oligomer was combined with 1 μg pGL2 or pSVβ+1 μg of the target CAT plasmid in 0.5 ml of Optimem (Gibco/BRL) and 18.75 μg Transfectam (for chimeric oligomers, Promega) or Lipofectamine (for all PS oligomers, Promega) also in 0.5 ml of Optimem. These quantities gave a 6.9 or 4.5 or 2.0 to 1 cationic lipid to oligomer plus DNA ratio, respectively, in one milliliter total. pGL2 and pSVβ served as transfection and oligomer specificity controls. […]
The cell lysates were then assayed for CAT, and luciferase or […] activity, and the total protein concentration was determined as described below. […]
[…] of reaction mixture was then added to each tube, which was then incubated for, typically, approximately 1 hour in a 37° C. oven. […] The sample was then counted in a Packard scintillation counter.
This assay was performed generally as follows according to standard procedures. 20 μof lysate was combined with 100 μl of luciferase assay reagent (Promega) and counted in a scintillation counter (Packard) within 20 seconds (as recommended by Promega). […]
Six μl of lysate per well was added, followed by 300 μl Coomassie Protein Assay Reagent (Pierce) per well. The individual sample plates were then read at A570 on a microplate reader (Molecular Devices). […]
Oligomers were transfected into COS-7 cells and lysates were made and assayed as described previously. […] N.D.=not determined. […]

| Substance | Tm [1] [°C] | KA (37° C.) [1] | Tm [4] [°C] | also measured |
| --- | --- | --- | --- | --- |
| 3257-1: 5'-GTCTTC(CATGCAT)GTTGTCC-3' [MP(Rp)/DE][PS/DE][MP(Rp)/DE] [Oligomer 3257-1] | 60.9 | 2.1 × 10^14 |  |  |
| 3214-1: 5'-GTCTTCCA(TGCAT)GTTGTCC-3' [MP(Rp)/DE][PS/DE][MP(Rp)/DE] [Oligomer 3214-1] | 61.0 | 2.3 × 10^14 |  | Half-Life for Degradation (S1-endonuclease): 5.0 h; RNaseH Cleavage after 2 Hrs. at 37° C. [2]: 38.0%; Half-Life for Degradation [3]: 4.3 h |
| 3256-1: 5'-GTCTTCCA(TGCAT)GTTGTCC-3' [MP(Rp)/DE][PS][MP(Rp)/DE] [Oligomer 3256-1] | 60.1 | 5.5 × 10^13 |  | Half-Life for Degradation (S1-endonuclease): 12.5 h; RNaseH Cleavage after 2 Hrs. at 37° C. [2]: 18.7%; Half-Life for Degradation [3]: 16.2 h |
| 1634-1: 5'-TAG-CTT-CCT-TAG-CTC-CTG-3', racemic methylphosphonate (TAGCTTCCTTAGCTCCTG; all [mp], sugars by position and methylation of C not given here) [Oligomer 1634-1] |  |  | 38.2 |  |
| XV-7: 24mer, all phosphorothioate: 5' ccc tga gag aga gag aga ggt tcg 3' (CCCTGAGAGAGAGAGAGAGGTTCG; all phosphorothioate, sugars by position and methylation of C not given here) |  |  |  | percent inhibition of CAT expression, pG1035 = splicing (pG1035 (SplicerCAT)): 17 ± 6% |
| 2624-1: 3'-CTGTTG TACGT ACCTTCTG-5' Racemic MP (CTGTTGTACGTACCTTCTG; racemic methylphosphonate, chemistry not fully specified; listed 3' to 5') [Oligomer 2624-1] |  |  | 38.6 |  |
| 2571-1: 5'-(G*T)(C*T)(T*C)(C*A)(T*G)(C*A)(T*G)(T*T)(G*T)-C-3', 75% MP(Rp) [Oligomer 2571-1] |  |  | 46.3 | ΔTm ([4]; Rp-enriched versus racemic oligomer of the pair): 8.2 °C |
| 2688-1: 5'-ATG-GTG-TCT-GTT-TGA-GGT-T-3', racemic methylphosphonate (ATGGTGTCTGTTTGAGGTT; all [mp], sugars by position and methylation of C not given here) [Oligomer 2688-1] |  |  | 40.0 |  |
| 2253-1: 5'-AGA-GAG-AGA-GAG-AG-T-3', racemic methylphosphonate (AGAGAGAGAGAGAGT; all [mp], sugars by position not given here) [Oligomer 2253-1] |  |  | 48.9 |  |
| 2687-1: 5'-GTCTTCCA(TGCAT)GTTGTCC-3' [75% MP(Rp)][DE][75% MP(Rp)] [Oligomer 2687-1] | 52.8 | 2.6 × 10^9 |  |  |
| 2517-1: 5'-GTG-TGT-GTG-TGT-GTG-TA-3'-3', racemic methylphosphonate (GTGTGTGTGTGTGTGTA; all [mp], sugars by position not given here; further chemistry not fully specified) [Oligomer 2517-1] |  |  | 41.0 |  |
| 2681-1: 5'-GTCTTCCA(TGCAT)GTTGTCC-3' [MP][PS/DE][MP] [Oligomer 2681-1] | 44.1 | 2.1 × 10^7 |  | Half-Life for Degradation (S1-endonuclease): 12.2 h; Half-Life for Degradation [3]: 8.1 h |
